“Also recorded” adds a separate entry of the source.
Tests used:
[1] = system: Primary olfactory neurons; test: cyclic AMP levels (RIA) in primary olfactory neurons exposed to odorant; type: cell-based, rat; conditions: 10 uM IBMP
From the text: Olfactory tissue from neonatal rats was collected, minced, dissociated in enzymes and plated on chamber slides pretreated with laminin as described below.
Approximately 3 litters or 28-32 pups were used per prep. The 2-3 day old rat pups were sacrificed by decapitation, and olfactory tissue dissected and immediately placed in modified Eagle's medium (MEM) containing 4.8 g/l of HEPES buffer, designated MEM-AIR. The turbinates were transferred twice through fresh MEM-AIR to minimize contamination. Tissue was then centrifuged at 700×g for 7 min. After the supernatant was decanted, the tissue was minced to achieve tissue fragments of approximately 1 mm in size, resuspended in MEM-AIR and centrifuged at 700×g for 7 min. Tissue was then placed in 30 ml of MEM-AIR containing 1% (w/v) BSA, RIA grade (Sigma, St. Louis, Mo.), 1 mg/ml hyaluronidase (Sigma), 50 ug/ml DNAse (Sigma), 1 mg/ml collagenase (Worthington Biochemicals, Freehold, N.J.), and 5 mg/ml dispase (Boehringer-Mannheim Biochemicals, Indianapolis, Ind.), and incubated with agitation for 1 hr at 37° C. At the end of incubation, the cell suspension was triturated 10 times with a 10 ml plastic piper and passed through a 150 micron wire mesh. The cell suspension was then centrifuged at 500×g for 5 min. […]

NG-108 cells = test: cyclic AMP levels (RIA) in NG-108 cells exposed to odorant; type: cell-based; conditions: similar treatment
[2] = system: olfactory neurons (primary cultures); test: effect of substrate matrix substances on morphology and plating efficiency of olfactory neurons; type: cell-based, rat; conditions: for plating efficiency / process (neurite) outgrowth: coated slides, phase contrast and anti-vimentin immunofluorescence
Experimental: To determine the role of substrate matrix substances on plating efficiency and on cellular selection, a number of different substrates were tested.
Two chamber slides were pretreated in a number of ways. For laminin coating, 1 ml of MDV containing 25 ug/ml laminin was plated onto glass two-chamber slides overnight at 37° C.; before use, the slides were rinsed with MDV. For fibronectin, slides were treated with a solution containing 1 ml of MDV containing 20 ug/ml fibronectin (Collaborative Research), incubated overnight at 37° C., and rinsed with MDV prior to use. For polyornithine (PORN, Sigma Chemicals), a solution at a concentration of 1 mg/ml PORN in deionized distilled water was added to slides, incubated 1 hr at 37° C., rinsed twice with deionized distilled water, and rinsed once with MDV prior to use. When laminin was used on PORN-treated slides, slides were treated with PORN and then laminin in the usual manner. Coating of slides with poly-D-lysine was performed analogous to treatment with polyornithine. Heparan sulfate was diluted in MDV to a concentration of 10 ug/ml and 1 ml was placed on a slide, maintained overnight at 37° C., and rinsed with deionized distilled water prior to use. Collagen (Gibco) or collagen IV (Collaborative Research) was prepared as a 50 ug/ml solution in deionized distilled water and 1 ml of this solution utilized per slide. In the case of collagen, the solution was allowed to air dry. Collagen IV was maintained overnight at room temperature, aspirated, air dried and then rinsed twice with deionized distilled water prior to use. When laminin was used with collagen IV, collagen IV was prepared as described, and laminin was subsequently added in the usual manner. Matrigel (Collaborative Research) was utilized according to manufacturer's instructions.
Primary cultures were prepared as describe above and plated onto a number of different substrates and examined by phase contrast as well as immunofluorescence with antivimentin antisera (FIG. 6).
Matrigel was also examined as a substrate (FIG. 7).

[3] = system: olfactory neurons (primary cultures); test: effect of NGF on olfactory neuron survival and neurite extension; type: cell-based, rat
Experimental: Approximately 3 litters or 28-32 pups were used per prep. The 2-3 day old rat pups were sacrificed by decapitation, and olfactory tissue dissected and immediately placed in modified Eagle's medium (MEM) containing 4.8 g/l of HEPES buffer, designated MEM-AIR. The turbinates were transferred twice through fresh MEM-AIR to minimize contamination. Tissue was then centrifuged at 700×g for 7 min. After the supernatant was decanted, the tissue was minced to achieve tissue fragments of approximately 1 mm in size, resuspended in MEM-AIR and centrifuged at 700×g for 7 min. Tissue was then placed in 30 ml of MEM-AIR containing 1% (w/v) BSA, RIA grade (Sigma, St. Louis, Mo.), 1 mg/ml hyaluronidase (Sigma), 50 ug/ml DNAse (Sigma), 1 mg/ml collagenase (Worthington Biochemicals, Freehold, N.J.), and 5 mg/ml dispase (Boehringer-Mannheim Biochemicals, Indianapolis, Ind.), and incubated with agitation for 1 hr at 37° C. At the end of incubation, the cell suspension was triturated 10 times with a 10 ml plastic piper and passed through a 150 micron wire mesh. The cell suspension was then centrifuged at 500×g for 5 min. The supernatant was aspirated and the cell pellet resuspended in plating medium composed of modified Eagle's medium containing D-valine (MDV, Gibco, Grand Island, N.Y.) containing 15% (v/v) dialyzed fetal calf serum (dFCS, Gibco), 5% (v/v) NU serum (Collaborative Research, Bedford, Mass.), 10 uM cytosine arabinoside (ara C) and 25 ng/ml nerve growth factor (NGF, Collaborative Research). After resuspension, cells were successively filtered through 50 micron and 10 micron nylon mesh filters (Small Parts, Miami, Fla.), to remove any remaining undigested clumps of cells and epithelial cells. Cells were plated at a density of 1×10^6 cells per cm^2 into tissue culture dish (Falcon, Lincoln Park, N.J.) or Labtek tissue culture slides (Nunc, Naperville, Ill.) coated with MDV containing laminin at 25 ug/ml (Collaborative Research). Cultures were placed in a humidified 37° C. incubator receiving 5% CO2. […]

[4] = without NGF vs 25 ng/ml NGF, by 3 days in culture

For `COc1nccnc1CC(C)C` [IBMP, 2-isobutyl-3-methoxypyrazine], the “change of intracellular cyclic AMP levels” value [1] was “rapid, transient rise in intracellular cyclic AMP levels” and the “change of cyclic AMP levels” value (NG-108 cells) was “does not alter cyclic AMP levels”.

In the case of collagen, the “plating efficiency” value [2] is reported as “somewhat better plating efficiency than poly-D-lysine, polyornithine or heparan-sulfate” and the “process (neurite) outgrowth” value [2] is reported as “process outgrowth is still stunted”.

In the case of fibronectin, the “process (neurite) outgrowth” value [2] is reported as “the processes are shorter”.

In the case of laminin, the “plating efficiency” value [2] is reported as “optimal plating efficiency” and the “neurite extension and aggregation of cells” value ([2]; duplicate cell suspensions, laminin vs matrigel) is reported as “cells extend neurites in a random fashion, with no tendency to reaggregate”.

B1: NGF: nerve growth factor (NGF, Collaborative Research) (protein, UniProt P01139 122-241, looked up)
Beta-nerve growth factor: SSTHPVFHMGEFSVCDSVSVWVGDKTTATDIKGKEVTVLAEVNINNSVFRQYFFETKCRASNPVESGCRGIDSKHWNSYCTTTHTFVKALTTDEKQAAWRFIRIDTACVCVLSRKATRRG
modifications: Beta-nerve growth factor
In the case of B1, the “role in olfactory neuronal survival and neurite extension” value ([3]; 25 ng/ml NGF in medium) is reported as “necessary for survival of olfactory neurons; also recorded: affects both olfactory neuronal survival and neurite extension in culture”, the “decrease of cell viability in cells maintained without NGF” value [3, 4] is reported as “approximately 85%” and the “process extension in cells maintained without NGF” value [3, 4] is reported as “lose process extension”.
